Measurements as given in patent US20090227600A1, “4-(PYRAZINE-2-YL) -PYRROLIDINE -2-CARBOXYLIC ACID COMPOUNDS AND DERIVATIVES THEREOF AS HEPATITIS C VIRUS INHIBITORS” (priority 2004, published 2009).

Legend:
[1] = molecular target: T1, HCV RNA Polymerase, recombinant full-length NS5B, genotype 1b (Hepatitis C virus genotype 1b, UniProt Q9WMX2); assay: In vitro HCV RNA-dependent RNA polymerase inhibition assay, genotype 1b full-length enzyme; assay type: biochemical, HCV genotype 1b; details: genotype 1b full-length NS5B enzyme
T1 construct: Recombinant full-length NS5B; made in house
Protocol: Incorporation of [^33P]-GMP into RNA was followed by absorption of the biotin labelled RNA polymer by streptavidin containing SPA beads. A synthetic template consisting of biotinylated 13mer-oligoG hybridised to polyrC was used as a homopolymer substrate.
b) Genotype 1b Full-Length Enzyme
Reaction Conditions were 0.5 μM [^33P]-GTP (20 Ci/mMol), 1 mM Dithiothreitol, 20 mM MgCl2, 5 mM MnCl2, 20 mM Tris-HCl, pH7.5, 1.6 μg/mL polyC/0.256 μM biotinylated oligoG13, 10% glycerol, 0.01% NP-40, 0.2 u/μL RNasin and 50 mM NaCl.
HCV RNA Polymerase (Recombinant full-length NS5B (Lohmann et al, J. Virol. 71 (11), 1997, 8416. ‘Biochemical properties of hepatitis C virus NS5B RNA-dependent RNA polymerase and identification of amino acid sequence motifs essential for enzymatic activity’) expressed in baculovirus and purified to homogeneity) was added to 4 nM final concentration.
5× concentrated assay buffer mix was prepared using 1M MnCl2 (0.25 mL), glycerol (2.5 mL), 10% NP-40 (0.025 mL) and Water (7.225 mL), Total 10 mL.
2× concentrated enzyme buffer contained 1M-Tris-HCl, pH7.5 (0.4 mL), 5M NaCl (0.2 mL), 1M-MgCl2 (0.4 mL), glycerol (1 mL), 10% NP-40 (10 μL), 1M DTT (20 μL) and water (7.97 mL), Total 10 mL.
Substrate Mix was prepared using 5× Concentrated assay Buffer mix (4 μL), [^33P]-GTP (10 μCi/μL, 0.02 μL), 25 μM GTP (0.4 μL), 40 u/μL RNasin (0.1 μL), 20 μg/mL polyrC/biotinylated-oligoG (1.6 μL), and Water (3.94 μL), Total 10 μL.
Enzyme Mix was prepared by adding 1 mg/ml full-length NS5B polymerase (1.5 μL) to 2.81 mL 2×-concentrated enzyme buffer.
The Assay was set up using compound (1 μL), Substrate Mix (10 μL), and Enzyme Mix (added last to start reaction) (10 μL), Total 21 μL.
The reaction was performed in a U-bottomed, white, 96-well plate. The reaction was mixed on a plate-shaker, after addition of the Enzyme, and incubated for 1 h at 22° C. After this time, the reaction was stopped by addition of 40 μL 1.875 mg/ml streptavidin SPA beads in 0.1 M EDTA. The beads were incubated with the reaction mixture for 1 h at 22° C. after which 120 μL 0.1 M EDTA in PBS was added. The plate was sealed, mixed centrifuged and incorporated radioactivity determined by counting in a Trilux (Wallac) or Topcount (Packard) Scintillation Counter.
After subtraction of background levels without enzyme, any reduction in the amount of radioactivity incorporated in the presence of a compound, compared to that in the absence, was taken as a measure of the level of inhibition. Ten concentrations of compounds were tested in three- or fivefold dilutions. From the counts, percentage of inhibition at highest concentration tested or IC50s for the compounds were calculated using GraFit 3, GraFit 4 or GraFit 5 (Erithacus Software Ltd.) software packages or a data evaluation macro for Excel based on XLFit Software (IDBS).

[2] = system: Huh-7 HCV replicon cells (genotype 1a); assay: Replicon ELISA cell based assay, genotype 1a; set-up: species or system HCV genotype 1a; details: Hepatitis C virus, Huh-7 genotype 1a replicon, 72 hours
Protocol: 100 μL of medium containing 10% FCS were added to each well of clear, flat-bottomed 96 well microplates, excepting wells in the top row. Test compound was diluted in assay medium to twice the final required starting concentration from a 40 mM stock solution in DMSO. 200 μL of the starting dilution were introduced into two wells each in the top row and doubling dilutions made down the plate by the sequential transfer of 100 μL aliquots with thorough mixing in the wells; the final 100 μL were discarded. The two bottom rows were not used for compound dilutions. Huh-7 HCV replicon cell monolayers nearing confluency were stripped from growth flasks with versene-trypsin solution and the cells were resuspended in assay medium at either 2×10^5 cells/mL (sub-line 5-15; genotype 1b; Lohmann, V., Komer, F., Koch, J-O., Herian, U., Thielmann, L. And Bartenschlager, R., 1999, Science, 285, pp 110-113) or at 3×10^5 cells/mL (genotype 1a; Gu, B., Gates, A. T., Isken, O., Behrens, S. E. and Sarisky, R. T., J. Virol., 2003, 77, 5352-5359). 100 μL of cell suspension were added to all wells and the plates incubated at 37° C. for 72 hours in a 5% CO2 atmosphere.
Following incubation, the assay medium was aspirated from the plates. The cell sheets were washed by gentle immersion in phosphate buffered saline (PBS), which was then aspirated off, and fixed with acetone:methanol (1:1) for 5 minutes. Following a further wash with PBS, 100 μL of ELISA diluent (PBS+0.05% v/v Tween 20+2% w/v skimmed milk powder) were added to all wells and the plates incubated at 37° C. for 30 minutes on an orbital platform. The diluent was removed and each well then received 50 μL of a 1/200 dilution of anti-HCV specific, murine, monoclonal antibody (either Virostat #1872 or #1877), except for wells in one of the compound-free control rows which received diluent alone to act as negative controls. The plates were incubated at 37° C. for 2 hours and washed 3 times with PBS/0.05% Tween 20, then 50 μL of horseradish peroxidase conjugated, anti-mouse, rabbit polyclonal serum (Dako #P0260), diluted 1/1000, were added to all wells. The plates were incubated for a further hour, the antibody removed and the cell sheets washed 5 times with PBS/Tween and blotted dry. The assay was developed by the addition of 50 μL of ortho-phenylenediamine/peroxidase substrate in urea/citrate buffer (SigmaFast, Sigma #P-9187) to each well, and colour allowed to develop for up to 15 minutes. The reaction was stopped by the addition of 25 μL per well of 2 M sulphuric acid and the plates were read at 490 nm on a Fluostar Optima spectrophotometer.
The substrate solution was removed and the plates were washed in tap water, blotted dry and the cells stained with 5% carbol fuchsin in water for 30 minutes. The stain was discarded and the cell sheets washed, dried and examined microscopically to assess cytotoxicity.
The absorbance values from all compound-free wells that had received both primary and secondary antibodies were averaged to obtain a positive control value. The mean absorbance value from the compound-free wells that had not received the primary antibody was used to provide the negative (background) control value. The readings from the duplicate wells at each compound concentration were averaged and, after the subtraction of the mean background from all values, were expressed as a percentage of the positive control signal. The quantifiable and specific reduction of expressed protein detected by the ELISA in the presence of a drug can be used as a measure of replicon inhibition. GraFit software was used to plot the curve of percentage inhibition against compound concentration and derive the 50% inhibitory concentration (IC50) for the compound.

T1 sequence (Q9WMX2 2420-3010): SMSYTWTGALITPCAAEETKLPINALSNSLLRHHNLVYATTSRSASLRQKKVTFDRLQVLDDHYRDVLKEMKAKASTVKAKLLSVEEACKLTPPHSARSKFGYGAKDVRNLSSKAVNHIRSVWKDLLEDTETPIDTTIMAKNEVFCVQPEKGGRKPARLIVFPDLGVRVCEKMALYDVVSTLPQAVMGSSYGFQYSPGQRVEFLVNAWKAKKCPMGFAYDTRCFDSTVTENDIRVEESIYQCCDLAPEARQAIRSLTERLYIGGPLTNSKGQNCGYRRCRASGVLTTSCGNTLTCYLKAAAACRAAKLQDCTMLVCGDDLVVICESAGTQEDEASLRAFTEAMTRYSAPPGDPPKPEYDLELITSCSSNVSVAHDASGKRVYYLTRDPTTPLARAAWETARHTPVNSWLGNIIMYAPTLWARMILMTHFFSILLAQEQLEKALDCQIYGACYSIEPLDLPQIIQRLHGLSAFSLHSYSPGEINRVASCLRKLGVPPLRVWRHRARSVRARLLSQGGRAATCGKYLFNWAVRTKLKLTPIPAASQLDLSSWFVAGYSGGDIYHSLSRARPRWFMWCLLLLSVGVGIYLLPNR

In the case of `COc1cc(C(=O)N2[C@@H](c3ncc(C)s3)[C@@H](c3cnccn3)C[C@@]2(Cc2nccs2)C(=O)O)ccc1C(C)(C)C` (racemic) [Example 13, rel-(2R,4S,5R)-1-(3-Methoxy-4-tert-butylbenzoyl)-5-(5-methyl-1,3-thiazol-2-yl)-4-(pyrazin-2-yl)-2-(1,3-thiazol-2-ylmethyl)pyrrolidine-2-carboxylic acid], the IC50 [1] is reported as < 0.1 µM and the IC50 [2] is reported as < 10 µM.

With `COc1cc(C(=O)N2[C@@H](c3ncc(C)s3)[C@@H](c3cnccn3)C[C@@]2(Cc2cscn2)C(=O)O)ccc1C(C)(C)C` (racemic) [Example 15, rel-(2R,4S,5R)-1-(3-Methoxy-4-tert-butylbenzoyl)-5-(5-methyl-1,3-thiazol-2-yl)-4-(pyrazin-2-yl)-2-(1,3-thiazol-4-ylmethyl)pyrrolidine-2-carboxylic acid] the IC50 [1] was < 0.1 µM and the IC50 [2] was < 10 µM.

`COc1cc(C(=O)N2[C@@H](c3nccs3)[C@@H](c3cnccn3)C[C@@]2(CC(C)C)C(=O)O)ccc1C(C)(C)C` (single isomer, unassigned; enantiomer a) [Compound B, reference compound] was tested, and the IC50 [1] was > 0.5 µM and the IC50 [2] was 10 to 100 µM.

With `COc1cc(C(=O)N2[C@@H](c3nccs3)[C@@H](c3cnccn3)C[C@@]2(Cc2cscn2)C(=O)O)ccc1C(C)(C)C` (single isomer, unassigned; enantiomer a) [Example 2] the IC50 [1] was < 0.1 µM and the IC50 [2] was < 10 µM.

For `COc1cc(C(=O)N2[C@@H](c3nccs3)[C@@H](c3cnccn3)C[C@@]2(Cc2nccs2)C(=O)O)ccc1C(C)(C)C` (single isomer, unassigned; enantiomer a) [Example 4], the IC50 [1] was < 0.1 µM and the IC50 [2] was < 10 µM.

In the case of `COc1cc(C(=O)N2[C@@H](c3ncc(C)s3)[C@@H](c3cnccn3)C[C@@]2(Cc2ccsn2)C(=O)O)ccc1C(C)(C)C` (single isomer, unassigned; enantiomer a) [Example 6], the IC50 [1] is reported as < 0.1 µM and the IC50 [2] is reported as < 10 µM.

`COc1cc(C(=O)N2[C@@H](c3nccs3)[C@@H](c3cnccn3)C[C@@]2(Cc2ccsn2)C(=O)O)ccc1C(C)(C)C` (single isomer, unassigned; enantiomer a) [Example 8] was tested, and the IC50 [1] was < 0.1 µM and the IC50 [2] was < 10 µM.

`COc1cc(C(=O)N2[C@@H](c3ncc(C)s3)[C@@H](c3cnccn3)C[C@@]2(Cn2cccn2)C(=O)O)ccc1C(C)(C)C` (single isomer, unassigned; enantiomer a) [Example 10] was tested, and the IC50 [1] was < 0.1 µM and the IC50 [2] was < 10 µM.

With `COc1cc(C(=O)N2[C@@H](c3nccs3)[C@@H](c3cnccn3)C[C@@]2(Cn2cccn2)C(=O)O)ccc1C(C)(C)C` (single isomer, unassigned; enantiomer a) [Example 12] the IC50 [1] was < 0.1 µM and the IC50 [2] was < 10 µM.

In the case of `COc1cc(C(=O)N2[C@@H](c3ncc(C)s3)[C@@H](c3cnccn3)C[C@@]2(Cc2nccs2)C(=O)O)ccc1C(C)(C)C` (single isomer, unassigned; enantiomer a) [Example 14], the IC50 [1] is reported as < 0.1 µM and the IC50 [2] is reported as < 10 µM.

In the case of `COc1cc(C(=O)N2[C@@H](c3ncc(C)s3)[C@@H](c3cnccn3)C[C@@]2(Cc2cscn2)C(=O)O)ccc1C(C)(C)C` (single isomer, unassigned; enantiomer a) [Example 16], the IC50 [1] is reported as < 0.1 µM and the IC50 [2] is reported as < 10 µM.
